Experimental data reported in patent US6699287B2, “Dermal scaffold using alkaline pre-treated chitosan matrix or alkaline pre-treated chitosan and alkaline pre-treated collagen mixed matrix” (Korea Atomic Energy Research Institute, priority 1999, dated 2004).

Tested on: human dermal fibroblast cells
Experiment: Cytotoxicity test of chitosan derivates in vitro (MTT)
Format: cell-based
Details: 48 hours after treatment
Method: 1×10^4 of human dermal fibroblast cells in 96 well plate were cultured in DMEM medium supplemented with 100 μl of 10% serum. Then, the cultured cells were treated with 5, 50, and 500 ng/ml of chitosan oligomer, CM-chitin and 3,6-S-chitin, respectively. 48 hours after treatment, MTT (3-[4,5-dimethylthiazol-2-yl]-2,5-diphenyltetrazolium bromide; Thiazolyl blue, Sigma Product No. M5655) was added thereto and then, the mixture was allowed to stand for 4 hours. After removal of the culture medium, the resultant mixture was washed with phosphate buffered saline 2-3 times and 100 μl of DMSO (dimethylsulfoxide) was added thereto. After chromogenesis, an absorbance was measured at 545 nm on each well using ELISA reader.

Substance	Viability Assay Result Of Human Dermal Fibroblasts (MTT absorbance at 545 nm) (5 ng/ml)	Viability Assay Result Of Human Dermal Fibroblasts (MTT absorbance at 545 nm) (50 ng/ml)	Viability Assay Result Of Human Dermal Fibroblasts (MTT absorbance at 545 nm) (500 ng/ml)
3,6-S-chitin	0.608	0.727	0.595
CM-chitin	0.603	0.630	0.603
chitosan oligomer	0.629	0.618	0.733
